According to patent EP0114887B1, “POLYPEPTIDE” (LA JOLLA CANCER RESEARCH FOUNDATION, priority 1982, dated 1990):
Peptide text beside a SMILES is read from it.

Experiments:
cells [1] = experiment: Cell attachment to peptide-coupled Sepharose (agarose) beads; assay type: cell-based; details: coupled to cyanogen bromide-activated agarose beads (Sepharose), sterilized by autoclaving
Procedure: The four synthetic peptides as well as the 11.5-kDal fragment and a 200-kDal fragment of fibronectin were coupled to cyanogen bromide-activated Sepharose-6MB beads (Pharmacia) according to the manufacturer's instructions. The peptides were first reduced as described above and used at 8 mg of peptide per ml of Sepharose. Albumin-coated beads and beads derivatized with ethanolamine were used as controls.
The cell attachment assays were performed as described (Ruoslahti, E. et al (1981) Methods Enzymology82,803-831) with human fibroblasts or normal rat kidney (NRK) cells. Briefly, 100 I of a single- cell suspension containing […] was placed in a flat-bottom microtiter well that had been coated with one of the peptides or with fibronectin. After 1 h at 37°C, unattached cells were washed away and attached cells were fixed and stained for counting. In some experiments soluble peptide was added to the medium to determine if its presence during the attachment would have an inhibitory effect. Cell attachment to the agarose beads was performed on a layer of beads in the bottom of a round-bottom microtiter well exactly as described above.

cells [2] = experiment: Cell-attachment activity of the synthetic fragment compared with the entire polypeptide; assay type: cell-based

**Q.** With CC[C@H](C)[C@H](NC(=O)[C@H](CO)NC(=O)[C@@H](NC(=O)[C@@H]1CCCN1C(=O)[C@H](CCCCN)NC(=O)[C@H](CO)NC(=O)[C@H](CO)NC(=O)[C@H](C)NC(=O)[C@@H]1CCCN1C(=O)[C@H](CO)NC(=O)[C@H](CC(=O)O)NC(=O)CNC(=O)[C@H](CCCNC(=N)N)NC(=O)CNC(=O)[C@@H](NC(=O)[C@@H](NC(=O)[C@H](C)NC(=O)[C@@H](N)Cc1ccc(O)cc1)C(C)C)[C@@H](C)O)[C@@H](C)CC)C(=O)N[C@@H](CC(N)=O)C(=O)N[C@@H](Cc1ccc(O)cc1)C(=O)N[C@@H](CCCNC(=N)N)C(=O)N[C@H](C(=O)N[C@@H](CCC(=O)O)C(=O)N[C@H](C(=O)N[C@@H](CC(=O)O)C(=O)N[C@@H](CCCCN)C(=O)N1CCC[C@H]1C(=O)N[C@@H](CO)C(=O)N[C@@H](CCC(N)=O)C(=O)N[C@@H](CCSC)C(=O)O)[C@@H](C)CC)[C@@H](C)O [30-residue fragment, H-Tyr-Ala-Val-Thr-Gly-Arg-Gly-Asp-Ser-Pro-Ala-Ser-Ser-Lys-Pro-IIe-Ser-IIe-Asn-Tyr-Arg-Thr-Glu-IIe-Asp-Lys-Pro-Ser-Gln-Met-OH] (H-YAVTGRGDSPASSKPISINYRTEIDKPSQM-OH) as the molecule, how does the “attachment of cells to beads” value (cells [1]) read?
**A.** induces attachment of cells to the beads

**Q.** And the “cell-attachment activity compared with the entire sequence” value (cells [2])?
**A.** the same activity as the entire sequence
